Reference: patent US9221796B2, “Selective NR2B antagonists” (BRISTOL-MYERS SQUIBB COMPANY, priority 2014, dated 2015)
pKi: −log10 of the molar value.

Target: NR2B-subtype NMDA receptors (Rattus norvegicus (Rat), UniProt P35439+Q00960)
Test: Radioligand binding assay (3H Ro 25-6981 competition, forebrain membranes)
Settings: 3H Ro 25-6981 (4 nM), read-out: NR2B Binding Ki
Protocol: Radioligand Binding Assay. […] Buchy D; Klingelschmidt A; Messer J; Bleuel Z; Kemp J A; Richards J G. […] Thawed brains were homogenized using a Dounce homogenizer and centrifuged at 48000×g for 20 min. The pellet was resuspended in cold buffer and homogenized again using a Dounce homogenizer. […] After incubation for 1 hr at room temperature, the membrane bound radioligand was harvested on to GF/B filter plates (treated with 0.5% PEI for 1 hr at room temperature). The filter plates were dried at 50° C. for 20 mins, incubated with microscint 20 for 10 minutes and finally, the counts were read on TopCount (Perkin Elmer). […] CPM values were converted to % inhibition and the concentration response curves were plotted using custom made software. Each experiment was repeated at least twice to obtain the final binding Ki values for experimental compounds.

Sequence of NR2B-subtype NMDA receptors (Q00960 27-1482, other chains not shown): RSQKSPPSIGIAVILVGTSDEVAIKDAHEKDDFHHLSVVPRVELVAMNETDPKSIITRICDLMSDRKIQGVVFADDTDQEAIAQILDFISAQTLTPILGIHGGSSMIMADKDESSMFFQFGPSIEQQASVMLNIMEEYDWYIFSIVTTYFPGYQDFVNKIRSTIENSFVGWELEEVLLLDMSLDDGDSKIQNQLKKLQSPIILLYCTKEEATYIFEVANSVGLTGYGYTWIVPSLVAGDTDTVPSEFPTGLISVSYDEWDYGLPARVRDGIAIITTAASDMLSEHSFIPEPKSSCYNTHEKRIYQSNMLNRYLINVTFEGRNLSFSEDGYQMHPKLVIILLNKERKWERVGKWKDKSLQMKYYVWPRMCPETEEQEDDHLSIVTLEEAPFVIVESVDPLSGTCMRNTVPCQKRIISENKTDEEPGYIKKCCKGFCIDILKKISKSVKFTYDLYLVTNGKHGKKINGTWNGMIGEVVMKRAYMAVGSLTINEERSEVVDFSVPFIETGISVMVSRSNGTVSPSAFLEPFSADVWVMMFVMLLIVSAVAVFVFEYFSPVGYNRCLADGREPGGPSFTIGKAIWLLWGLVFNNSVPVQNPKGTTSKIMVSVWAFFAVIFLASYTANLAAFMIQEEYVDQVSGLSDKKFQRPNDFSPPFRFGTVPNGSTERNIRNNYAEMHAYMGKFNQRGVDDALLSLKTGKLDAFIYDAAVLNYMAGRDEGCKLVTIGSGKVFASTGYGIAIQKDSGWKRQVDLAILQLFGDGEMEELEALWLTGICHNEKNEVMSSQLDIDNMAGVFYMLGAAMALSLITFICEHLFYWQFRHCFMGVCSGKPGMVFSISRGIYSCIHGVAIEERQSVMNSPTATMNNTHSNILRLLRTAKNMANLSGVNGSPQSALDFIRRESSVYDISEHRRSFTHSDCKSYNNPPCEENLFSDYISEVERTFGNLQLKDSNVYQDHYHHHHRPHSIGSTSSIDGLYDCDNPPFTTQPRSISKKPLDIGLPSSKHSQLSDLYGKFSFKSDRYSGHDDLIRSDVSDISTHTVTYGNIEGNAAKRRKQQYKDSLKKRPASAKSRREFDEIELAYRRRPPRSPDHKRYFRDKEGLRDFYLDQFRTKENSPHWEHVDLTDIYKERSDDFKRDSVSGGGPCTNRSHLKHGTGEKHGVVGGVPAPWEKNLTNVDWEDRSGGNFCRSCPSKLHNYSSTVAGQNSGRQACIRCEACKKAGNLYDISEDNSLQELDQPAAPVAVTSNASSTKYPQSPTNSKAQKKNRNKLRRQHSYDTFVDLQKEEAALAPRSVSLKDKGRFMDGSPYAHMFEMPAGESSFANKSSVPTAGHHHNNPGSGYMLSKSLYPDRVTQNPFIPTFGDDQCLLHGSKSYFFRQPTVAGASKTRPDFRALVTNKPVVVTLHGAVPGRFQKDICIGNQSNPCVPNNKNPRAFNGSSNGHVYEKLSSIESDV

Row | SMILES | pKi
1 | O=C1C(N2CC[C@@H](c3ccc(O)cc3)[C@H](F)C2)CCN1Cc1ccc(OC(F)F)cc1 (stereo partly drawn) [Example 61, 1-(4-(Difluoromethoxy)benzyl)-3-((3S,4S)-3-fluoro-4-(4-hydroxyphenyl)piperidin-1-yl)pyrrolidin-2-one] | 7.34
2 | O=C1[C@H](N2CC[C@@H](c3ccc(O)cc3)[C@H](F)C2)CCN1Cc1ccc(Cl)c(F)c1 [Example 67, (R)-1-(4-Chloro-3-fluorobenzyl)-3-((3S,4S)-3-fluoro-4-(4-hydroxyphenyl)piperidin-1-yl)pyrrolidin-2-one] | 8.19
3 | O=C1[C@H](N2CCC(c3ccc(O)cc3)C(F)(F)C2)CCN1Cc1ccc(F)c(F)c1 (single isomer, unassigned) [Example 108, P-2] | 7.82
4 | C[C@@H](c1ccc(F)cc1)N1CCC(N2CCC(c3ccc(O)cc3)C(F)(F)C2)C1=O (single isomer, unassigned) [Example 56, P-4] | 6.18
5 | O=C1C(N2CC[C@@H](c3ccc(O)cc3)[C@H](F)C2)CCN1Cc1ccc(F)c(F)c1 (stereo partly drawn) [Example 69, 1-(3,4-Difluorobenzyl)-3-((3S,4S)-3-fluoro-4-(4-hydroxyphenyl)piperidin-1-yl)pyrrolidin-2-one] | 7.47
6 | O=C1[C@H](N2CC[C@H](c3ccc(O)cc3)[C@@H](F)C2)CCN1Cc1ccc(C(F)(F)F)cc1 [Example 88, (R)-3-((3R,4R)-3-Fluoro-4-(4-hydroxyphenyl)piperidin-1-yl)-1-(4-(trifluoromethyl)benzyl)-pyrrolidin-2-one] | 8.28
7 | O=C1C(N2CCN(c3ccc(O)cc3)CC2)CCN1Cc1ccc(F)cc1 (stereo not drawn) [Example 113, 1-(4-fluorobenzyl)-3-(4-(4-hydroxyphenyl)piperazin-1-yl)pyrrolidin-2-one] | 7.48
8 | Cc1ccc(CN2CC[C@H](N3CC(c4ccc(O)cc4)C3)C2=O)cc1F [Example 21b, (S)-1-(3-Fluoro-4-methylbenzyl)-3-(3-(4-hydroxyphenyl)azetidin-1-yl)pyrrolidin-2-one] | 6.39
9 | O=C1C(N2CCC(c3ccc(O)cc3)CC2)CCN1Cc1ccc(F)c(F)c1 (racemic) [Example 5, 1-(3,4-Difluorobenzyl)-3-(4-(4-hydroxyphenyl)piperidin-1-yl)pyrrolidin-2-one] | 8.36
10 | Cc1ccc(CN2CCC(N3CC(c4ccc(O)cc4)C3)C2=O)cc1F (stereo not drawn) [Example 20, 1-(3-Fluoro-4-methylbenzyl)-3-(3-(4-hydroxyphenyl)azetidin-1-yl)pyrrolidin-2-one] | 7.37
11 | O=C1C(N2CCC(c3ccc(O)cc3)C(F)(F)C2)CCN1Cc1ccccc1 (single isomer, unassigned) [Example 91, P-1, 1-Benzyl-3-(3,3-difluoro-4-(4-hydroxyphenyl)piperidin-1-yl)pyrrolidin-2-one] | 7.12
12 | O=C1[C@H](N2CCC(c3ccc(O)cc3)C(F)(F)C2)CCN1Cc1ccc(Cl)cc1 (stereo partly drawn) [Example 95, P-2, (3R)-1-(4-Chlorobenzyl)-3-(3,3-difluoro-4-(4-hydroxyphenyl)piperidin-1-yl)pyrrolidin-2-one] | 7.92
13 | O=C1C(N2CCC(c3ccc(O)cc3)C(O)C2)CCN1Cc1ccc(F)cc1 (single isomer, unassigned) [Example 9d, 1-(4-Fluorobenzyl)-3-(3-hydroxy-4-(4-hydroxyphenyl)piperidin-1-yl)pyrrolidin-2-one] | 6.80
14 | O=C1[C@@H](N2CC[C@@H](c3ccc(O)cc3)[C@H](F)C2)CCN1Cc1ccc(Cl)cc1 [Example 64, (S)-1-(4-Chlorobenzyl)-3-((3S,4S)-3-fluoro-4-(4-hydroxyphenyl)piperidin-1-yl)pyrrolidin-2-one] | 6.31
15 | O=C1C(N2CCC(c3ccc(O)cc3)C(F)(F)C2)CCN1Cc1ccc(C(F)(F)F)cc1 (stereo not drawn) [Example 110, 3-(3,3-Difluoro-4-(4-hydroxyphenyl)piperidin-1-yl)-1-(4-(trifluoromethyl)benzyl)-pyrrolidin-2-one] | 7.44
16 | Cc1ccccc1CN1CCC(N2CCC(c3ccc(O)cc3)C(F)(F)C2)C1=O (stereo not drawn) [Example 92, 3-(3,3-Difluoro-4-(4-hydroxyphenyl)piperidin-1-yl)-1-(2-methylbenzyl)pyrrolidin-2-one] | 7.23
17 | C[C@@H](c1ccccc1)N1CC[C@H](N2CCC(c3ccc(O)cc3)CC2)C1=O [Example 33a, (S)-3-(4-(4-Hydroxyphenyl)piperidin-1-yl)-1-((S)-1-phenylethyl)pyrrolidin-2-one] | ≤ 5.30
18 | O=C1C(N2CCC(c3ccc(O)cc3)C(F)(F)C2)CCN1Cc1ccc(Cl)c(Cl)c1 (stereo not drawn) [Example 98, 1-(3,4-Dichlorobenzyl)-3-(3,3-difluoro-4-(4-hydroxyphenyl)piperidin-1-yl)pyrrolidin-2-one] | 6.64

Row | SMILES | pKi
19 | O=C1C(N2CCC(c3ccc(O)cc3)CC2)CCN1Cc1ccc(Cl)c(F)c1 (stereo not drawn) [Example 15, 1-(4-Chloro-3-fluorobenzyl)-3-(4-(4-hydroxyphenyl)piperidin-1-yl)pyrrolidin-2-one] | 7.92
20 | O=C1C(N2CC[C@H](c3ccc(O)cc3)[C@@H](F)C2)CCN1c1ccc(OC(F)F)c(Cl)c1 (stereo partly drawn) [Example 79, 1-(3-Chloro-4-(difluoromethoxy)phenyl)-3-((3R,4R)-3-fluoro-4-(4-hydroxyphenyl)-piperidin-1-yl)pyrrolidin-2-one] | 7.40
21 | O=C1[C@H](N2CCC(c3ccc(O)cc3)C(F)(F)C2)CCN1Cc1ccc(Cl)cc1 (stereo partly drawn) [Example 106, P-2, (3R)-1-(4-Chlorobenzyl)-3-(3,3-difluoro-4-(4-hydroxyphenyl)piperidin-1-yl)pyrrolidin-2-one] | 8.34
22 | Cc1ccc(CN2CCC(N3CC(c4ccc(O)cc4)C3)C2=O)cc1 (stereo not drawn) [Example 27, 3-(3-(4-Hydroxyphenyl)azetidin-1-yl)-1-(4-methylbenzyl)pyrrolidin-2-one] | 7.70
23 | C[C@@H](c1ccc(F)cc1)N1CCC(N2CCC(c3ccc(O)cc3)C(F)(F)C2)C1=O (single isomer, unassigned) [Example 56, P-2] | 5.85
24 | Cc1cccc(CN2CCC(N3CCC(c4ccc(O)cc4)C(F)(F)C3)C2=O)c1 (stereo not drawn) [Example 93, 3-(3,3-Difluoro-4-(4-hydroxyphenyl)piperidin-1-yl)-1-(3-methylbenzyl)pyrrolidin-2-one] | 7.17
25 | O=C1[C@@H](N2CC[C@@H](c3ccc(O)cc3)[C@H](F)C2)CCN1Cc1ccc(C(F)(F)F)cc1 [Example 71, (S)-3-((3S,4S)-3-Fluoro-4-(4-hydroxyphenyl)piperidin-1-yl)-1-(4-(trifluoromethyl)-benzyl)pyrrolidin-2-one] | 6.25
26 | C[C@@H](c1ccccc1)N1CCC(N2CC[C@H](c3ccc(O)cc3)[C@@H](F)C2)C1=O (stereo partly drawn) [Example 84, 3-((3R,4R)-3-Fluoro-4-(4-hydroxyphenyl)piperidin-1-yl)-1-((S)-1-phenylethyl)pyrrolidin-2-one] | 6.02
27 | O=C1C(N2CCC(c3ccc(O)cc3)C(F)(F)C2)CCN1Cc1ccc(OC(F)F)cc1 (stereo not drawn) [Example 94, 3-(3,3-Difluoro-4-(4-hydroxyphenyl)piperidin-1-yl)-1-(4-(difluoromethoxy)benzyl)-pyrrolidin-2-one] | 6.41
28 | O=C1[C@H](N2CC[C@@H](c3ccc(O)cc3)[C@H](F)C2)CCN1c1ccc(OC(F)F)c(Cl)c1 [Example 63, (R)-1-(3-Chloro-4-(difluoromethoxy)phenyl)-3-((3S,4S)-3-fluoro-4-(4-hydroxyphenyl)-piperidin-1-yl)pyrrolidin-2-one] | 8.00
29 | O=C1[C@@H](N2CCC(c3ccc(O)cc3)C(F)(F)C2)CCN1Cc1ccc(Cl)c(F)c1 (stereo partly drawn) [Example 96, P-1, (3S)-1-(4-Chloro-3-fluorobenzyl)-3-(3,3-difluoro-4-(4-hydroxyphenyl)piperidin-1-yl)pyrrolidin-2-one] | 6.31
30 | O=C1C(N2CCC(c3ccc(O)cc3)C(O)C2)CCN1Cc1ccc(F)cc1 (single isomer, unassigned) [Example 9a, 1-(4-Fluorobenzyl)-3-(3-hydroxy-4-(4-hydroxyphenyl)piperidin-1-yl)pyrrolidin-2-one] | 6.74
31 | O=C1[C@H](N2CC[C@@H](c3ccc(O)c(F)c3)[C@H](F)C2)CCN1Cc1ccc(C(F)F)cc1 [Example 117, P-2, (R)-1-(4-(difluoromethyl)benzyl)-3-((3S,4S)-3-fluoro-4-(3-fluoro-4-hydroxyphenyl)piperidin-1-yl)pyrrolidin-2-one] | 8.54
32 | Cc1ccc(CN2CC[C@H](N3CC(c4ccc(O)cc4)C3)C2=O)cc1 [Example 28a, (S)-3-(3-(4-Hydroxyphenyl)azetidin-1-yl)-1-(4-methylbenzyl)pyrrolidin-2-one] | 6.38
33 | O=C1C(N2CC[C@H](c3ccc(O)cc3)[C@@H](F)C2)CCN1Cc1ccc(F)c(Cl)c1 (stereo partly drawn) [Example 89, 1-(3-Chloro-4-fluorobenzyl)-3-((3R,4R)-3-fluoro-4-(4-hydroxyphenyl)piperidin-1-yl)pyrrolidin-2-one] | 6.70
34 | Cc1ccc(CN2CC[C@@H](N3CC[C@H](c4ccc(O)c(F)c4)[C@@H](F)C3)C2=O)cc1F [Example 45, P-4, (R)-3-((3R,4R)-3-fluoro-4-(3-fluoro-4-hydroxyphenyl)piperidin-1-yl)-1-(3-fluoro-4-methylbenzyl)pyrrolidin-2-one] | 8.60
35 | Cc1ccccc1CN1CCC(N2CC[C@H](c3ccc(O)cc3)[C@@H](F)C2)C1=O (stereo partly drawn) [Example 76, 3-((3R,4R)-3-Fluoro-4-(4-hydroxyphenyl)piperidin-1-yl)-1-(2-methylbenzyl)pyrrolidin-2-one] | 7.48
36 | O=C1C(N2CCC(c3ccc(O)cc3)C(F)(F)C2)CCN1Cc1ccc(F)c(Cl)c1 (stereo not drawn) [Example 111, 1-(3-Chloro-4-fluorobenzyl)-3-(3,3-difluoro-4-(4-hydroxyphenyl)piperidin-1-yl)pyrrolidin-2-one] | 6.23
